US11267802B2 (BEBETTER MED INC., priority 2015, dated 2022)
Where two headings read alike, the source gives them in different places.

Assays:
H358 = experiment: Inhibition assay on tumor cell proliferation (CellTiter-Glo), H358; assay type: cell-based, Human; conditions: Homo sapiens, NCI-H358; H358 (wild-type EGFR), 72 hours, 10% bovine serum
Summary of the method: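 Viability from ATP content by CellTiter-Glo luminescence; inhibition normalised to DMSO (max) and medium-only (min) wells, IC50 by sigmoidal dose-response fitting. LOVO and H358 carry wild-type EGFR; HCC827 has exon 19 deletion.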

[1] = Pharmacokinetic experiments of tumor model (plasma and tumor tissue, H1975 xenograft mice); assay type: in vivo, Balb/C nude mice; conditions: oral 30 mg/kg; for AUC(0-inf) / Cmax / Tmax / half-life / AUC(0-t): Balb/C nude, mouse; for AUC(0-t): read-out: AUC0-24
Method: (§1) Balb/C nude mice were purchased from Beijing Vital River Laboratory Animal Technology Co., Ltd., and housed in SPF animal room. The human non-small-cell lung cancer cell line H1975 in a culture dish was collected by trypsin-EDTA (0.25% trypsin, 1 mM EDTA), and then washed with a serum-free PBS solution. Lastly, the cells were implanted after diluted in a serum-free medium. Only the single cell suspension with a survival rate over 90% (Trypan blue rejection) can be used for injection. 5 million cells suspended in a 0.1 ml serum-free culture were injected into the front right flanking subcutaneous region of each mouse by using a 1 ml syringe and a 25G syringe needle, and the blood vessel was carefully avoided. The tumor size was measured in about one week after implantation. A caliper rule was used to measure the tumor size. The tumor volume was calculated by the following formula: tumor volume=(length×width^2)/2.
When the volume of H1975 xenograft tumor reached a volume of about 400 mm^3, the animals were divided into 6 oral administration groups, that is, excipient control group (0 hour) and groups of 30 minutes, 2 hours, 4 hours, 8 hours, and 24 hours after administration (3 animals at each time point). The compound 91 was dissolved in 30% sulfobutylated beta-cyclodextrin (SBE-β-CD) and 1 N HCl (pH 3-4) at a concentration of 3 mg/ml, and gavage administration at a dose of 30 mg/kg was performed. The mice were euthanized by CO2 at the above time points. Then their blood was collected from the heart and placed in a centrifuge tube containing K2-EDTA, and subjected to plasma collection by centrifugation. The tumor tissue was collected, cooled in liquid nitrogen immediately, and then stored under −80° C. until pharmacokinetic analysis.
Pharmacokinetic analysis was performed as below: the plasma sample and tumor tissue homogenate sample were mixed with 5 microliter of internal standard (IS), and then extracted with ethyl acetate. After vacuum drying, the residue was re-dissolved in acetonitrile. The sample was filtered and injected into LC-MS/MS for analysis.

[2] = system: EGFR phosphorylation in H1975 xenograft tumor; experiment: Pharmacodynamic experiments of tumor model (EGFR phosphorylation, Western blot); assay type: in vivo, Balb/C nude mice; conditions: oral 30 mg/kg
Method: as §1
When the H1975 xenograft tumor reached a volume of about […], the animals were divided into 4 oral administration groups, that is, excipient control group (0 hour) and groups of 2 hours, 4 hours, and 8 hours after administration (3 to 4 animals at each time point). […]
20 mg of tumor tissue was homogenized in 300 μl of protein extract (RIPA, CST, #9806). […] The protein concentration was determined by Bradford method (Beyotime, # P0006). […]

With `C=CC(=O)Nc1cc(Nc2nccc(-n3c(=O)n(C(C)C)c4cc(F)ccc43)n2)c(OC)cc1N(C)CCN(C)C` [Compound 91, N-(2-((2-(dimethylamino)ethyl)(methyl)amino)-5-(4-(5-fluoro-3-isopropyl-2-oxo-2,3-dihydro-1H-benzo[d]imidazol-1-yl)pyrimidin-2-ylamino)-4-methoxyphenyl)acrylamide] the IC50 (H358) was 100 to 1000 nM, the AUC(0-inf) ([1]; plasma) was 5130 ng·h/mL and the Cmax ([1]; plasma) was 1720 ng/mL. It also gave a Tmax ([1]; plasma) of 0.5 h, a half-life ([1]; plasma) of 3.1 h and an AUC(0-t) ([1]; plasma) of 5100 ng·h/mL. It also gave an AUC(0-inf) ([1]; tumor tissue) of 6840 ng·h/mL, a Cmax ([1]; tumor tissue) of 868 ng/mL and a Tmax ([1]; tumor tissue) of 4 h. For the same molecule, the half-life ([1]; tumor tissue) was 5.5 h, the AUC(0-t) ([1]; tumor tissue) was 6430 ng·h/mL and the “absorption after oral administration (in words)” value [1] was “absorbed quickly”. The “inhibition of EGFR phosphorylation in H1975 tumor (in words)” value ([2]; at 2 hours and 4 hours) was “strong” and the “inhibition of EGFR phosphorylation in H1975 tumor (in words)” value ([2]; at 8 hours) was “obvious inhibition effect”.
